The test system of this assay is bicistronic HCV replicon (replicon RNA, GenBank Accession No. AJ242654). Kind of assay: HCV Replicon Assay. The format is cell-based. To be noted: Hepatitis C virus, 72 h, read-out: Replicon IC50.
As for `C[C@H](NS(=O)(=O)c1ccc(-c2c(C#N)c3ccc(CC(F)F)cc3n2CC2CC2)nc1)C(F)(F)F` [compound 618, 6-[3-cyano-1-(cyclopropylmethyl)-6-(2,2-difluoroethyl)-1H-indol-2-yl]-N-[(2S)-1,1,1-trifluoropropan-2-yl]pyridine-3-sulfonamide], the IC50 is less than 500 nM.
Under `CC(C)(NS(=O)(=O)c1ccc(-c2c(C#N)c3ccc(C4CC4)cc3n2-c2ccccn2)nc1)C(F)(F)F` [compound 584, 6-[3-cyano-6-cyclopropyl-1-(pyridin-2-yl)-1H-indol-2-yl]-N-(1,1,1-trifluoro-2-methylpropan-2-yl)pyridine-3-sulfonamide] stands 500 to 2000 nM; under `N#Cc1c(-c2ccc(S(=O)(=O)NC3CC(F)(F)C3)cn2)n(C2CCC2)c2ccc(Cl)cc12` [compound 243, 6-(5-chloro-3-cyano-1-cyclobutyl-1H-indol-2-yl)-N-(3,3-difluorocyclobutyl)pyridine-3-sulfonamide], 500 to 2000 nM; under `Cc1cc2c(cc1F)cc(-c1ccc(S(=O)(=O)N[C@@H](C)C(F)(F)F)cn1)n2-c1ncco1` [compound 1059, 6-[5-fluoro-6-methyl-1-(1,3-oxazol-2-yl)-1H-indol-2-yl]-N-[(2S)-1,1,1-trifluoropropan-2-yl]pyridine-3-sulfonamide], less than 500 nM.
Turning to `Cc1cc2c(cc1O)c(C#N)c(-c1ccc(S(=O)(=O)N[C@H](C)C(F)(F)F)cn1)n2C1CCCC1` [compound 693, 6-(3-cyano-1-cyclopentyl-5-hydroxy-6-methyl-1H-indol-2-yl)-N-[(2R)-1,1,1-trifluoropropan-2-yl]pyridine-3-sulfonamide], the IC50 was less than 500 nM.
Under `C[C@@H](NS(=O)(=O)c1ccc(-c2c(C#N)c3ccc(F)cc3n2C2CCCCC2)nc1)C(F)(F)F` [compound 252, 6-(3-cyano-1-cyclohexyl-6-fluoro-1H-indol-2-yl)-N-[(2R)-1,1,1-trifluoropropan-2-yl]pyridine-3-sulfonamide] stands less than 500 nM; under `Cc1cc2c(cc1F)cc(-c1ccc(S(=O)(=O)N[C@@H](C)C(F)(F)F)cn1)n2-c1ccsc1` [compound 987, 6-[5-fluoro-6-methyl-1-(thiophen-3-yl)-1H-indol-2-yl]-N-[(2S)-1,1,1-trifluoropropan-2-yl]pyridine-3-sulfonamide], less than 500 nM.
In the case of `N#Cc1c(-c2ncc(S(=O)(=O)NC(CF)CF)cn2)n(C2CCC2)c2cc(C(F)F)ccc12` [compound 330, 2-[3-cyano-1-cyclobutyl-6-(difluoromethyl)-1H-indol-2-yl]-N-(1,3-difluoropropan-2-yl)pyrimidine-5-sulfonamide] it was less than 500 nM.
In the case of `C[C@@H](NS(=O)(=O)c1ccc(-c2c(C#N)c3ccc(Cl)cc3n2C2CCCC2)nc1)C(F)(F)F` [compound 223, 6-(6-chloro-3-cyano-1-cyclopentyl-1H-indol-2-yl)-N-[(2R)-1,1,1-trifluoropropan-2-yl]pyridine-3-sulfonamide] it was less than 500 nM; in that of `N#Cc1c(-c2ccc(S(=O)(=O)NC(CF)CF)cn2)n(C2CCC2)c2cc(C3CCC3)ccc12` [compound 342, 6-(3-cyano-1,6-dicyclobutyl-1H-indol-2-yl)-N-(1,3-difluoropropan-2-yl)pyridine-3-sulfonamide], 500 to 2000 nM.
Take `CCc1cc2c(cc1F)c(C(N)=O)c(-c1ccc(S(=O)(=O)N[C@@H](C)C(F)(F)F)cn1)n2-c1cncc(Cl)c1` [compound 1044, 1-(5-chloropyridin-3-yl)-6-ethyl-5-fluoro-2-(5-{[(2S)-1,1,1-trifluoropropan-2-yl]sulfamoyl}pyridin-2-yl)-1H-indole-3-carboxamide]: the concentration for half-maximal inhibition (IC50) was less than 500 nM.
As to `CCc1cc2c(cc1F)c(C#N)c(-c1ccc(S(=O)(=O)N[C@@H](C)C(F)(F)F)cn1)n2-c1ccc(C)cc1` [compound 1004, 6-[3-cyano-6-ethyl-5-fluoro-1-(4-methylphenyl)-1H-indol-2-yl]-N-[(2S)-1,1,1-trifluoropropan-2-yl]pyridine-3-sulfonamide], the 50% inhibitory concentration (IC50) is less than 500 nM.
For `Cc1c(F)cc2c(C#N)c(-c3ncc(S(=O)(=O)NC(CF)CF)cn3)n(C3CCC3)c2c1F` [compound 668, 2-(3-cyano-1-cyclobutyl-5,7-difluoro-6-methyl-1H-indol-2-yl)-N-(1,3-difluoropropan-2-yl)pyrimidine-5-sulfonamide], the concentration for half-maximal inhibition (IC50) was less than 500 nM.
Under `Cc1cc2c(C#N)c(-c3ccc(S(=O)(=O)N[C@H](C)C(F)(F)F)cn3)n(C3CCC3)c2cc1OC(F)F` [compound 665, 6-[3-cyano-1-cyclobutyl-6-(difluoromethoxy)-5-methyl-1H-indol-2-yl]-N-[(2R)-1,1,1-trifluoropropan-2-yl]pyridine-3-sulfonamide] stands 500 to 2000 nM; under `Cc1ccc2c(C#N)c(-c3ccc(S(=O)(=O)N[C@@H](C)C4CC4)cn3)n(C3CCCC3)c2c1` [compound 426, 6-(3-cyano-1-cyclopentyl-6-methyl-1H-indol-2-yl)-N-[(1S)-1-cyclopropylethyl]pyridine-3-sulfonamide], less than 500 nM; under `CCc1cc2c(cc1F)c(C(N)=O)c(-c1ccc(S(=O)(=O)N[C@@H](C)C(F)(F)F)cn1)n2-c1ccc(Cl)cn1` [compound 1043, 1-(5-chloropyridin-2-yl)-6-ethyl-5-fluoro-2-(5-{[(2S)-1,1,1-trifluoropropan-2-yl]sulfamoyl}pyridin-2-yl)-1H-indole-3-carboxamide], less than 500 nM.
Under `CC(C)(NS(=O)(=O)c1ccc(-c2c(C(=O)O)c3cc(F)c(OC(F)F)cc3n2C2CCCCC2)nc1)C(F)(F)F` [compound 928, 1-cyclohexyl-6-(difluoromethoxy)-5-fluoro-2-{5-[(1,1,1-trifluoro-2-methylpropan-2-yl)sulfamoyl]pyridin-2-yl}-1H-indole-3-carboxylic acid] stands less than 500 nM.
Under `N#Cc1c(-c2ccc(S(=O)(=O)NC(CF)CF)cn2)n(-c2ncccn2)c2ccc(F)cc12` [compound 608, 6-[3-cyano-5-fluoro-1-(pyrimidin-2-yl)-1H-indol-2-yl]-N-(1,3-difluoropropan-2-yl)pyridine-3-sulfonamide] stands less than 500 nM.
Turning to `COc1ccnc(-n2c(-c3ccc(S(=O)(=O)N[C@@H](C)C(F)(F)F)cn3)c(C#N)c3cc(F)c(C)cc32)n1` [compound 866, 6-[3-cyano-5-fluoro-1-(4-methoxypyrimidin-2-yl)-6-methyl-1H-indol-2-yl]-N-[(2S)-1,1,1-trifluoropropan-2-yl]pyridine-3-sulfonamide], the IC50 lay in the range of 500 to 2000 nM.
In the case of `Cc1cc(NS(=O)(=O)C(C)(C)C)ncc1-c1c(C(=O)O)c2cc(F)c(OC(F)F)cc2n1[C@H](C)C1CC1` [compound 1086, 2-{6-[(tert-butylsulfonyl)amino]-4-methylpyridin-3-yl}-1-[(1R)-1-cyclopropylethyl]-6-(difluoromethoxy)-5-fluoro-1H-indole-3-carboxylic acid] it was less than 500 nM.
Under `Cc1cc2c(cc1F)cc(-c1ccc(S(=O)(=O)N[C@@H](C)C(F)(F)F)cn1)n2-c1cscn1` [compound 957, 6-[5-fluoro-6-methyl-1-(1,3-thiazol-4-yl)-1H-indol-2-yl]-N-[(2S)-1,1,1-trifluoropropan-2-yl]pyridine-3-sulfonamide] stands 500 to 2000 nM; under `Cc1cc2c(cc1F)c(C(=O)O)c(-c1ncc(S(=O)(=O)N[C@@H](C)C(F)(F)F)cn1)n2C1CCC1` [compound 775, 1-cyclobutyl-5-fluoro-6-methyl-2-(5-{[(2S)-1,1,1-trifluoropropan-2-yl]sulfamoyl}pyrimidin-2-yl)-1H-indole-3-carboxylic acid], 500 to 2000 nM.
In the case of `CCc1cc2c(cc1F)c(C#N)c(-c1ccc(S(=O)(=O)N[C@H](C)C(F)(F)F)cn1)n2-c1ncccn1` [compound 878, 6-[3-cyano-6-ethyl-5-fluoro-1-(pyrimidin-2-yl)-1H-indol-2-yl]-N-[(2R)-1,1,1-trifluoropropan-2-yl]pyridine-3-sulfonamide] it was less than 500 nM; in that of `CCc1cc2c(cc1F)c(C#N)c(-c1ccc(S(=O)(=O)N[C@@H](C)C(F)(F)F)cn1)n2C1=NC=CCN1` [compound 941, 6-[3-cyano-1-(1,6-dihydropyrimidin-2-yl)-6-ethyl-5-fluoro-1H-indol-2-yl]-N-[(2S)-1,1,1-trifluoropropan-2-yl]pyridine-3-sulfonamide], 500 to 2000 nM.
For `C[C@H](NS(=O)(=O)c1ccc(-c2c(C#N)c3cc(F)c(CC(F)F)cc3n2C2CCC2)nc1)C(F)(F)F` [compound 697, 6-[3-cyano-1-cyclobutyl-6-(2,2-difluoroethyl)-5-fluoro-1H-indol-2-yl]-N-[(2S)-1,1,1-trifluoropropan-2-yl]pyridine-3-sulfonamide], the IC50 is less than 500 nM.
In the case of `Cc1cnc(-n2c(-c3ccc(S(=O)(=O)N[C@@H](C)C(F)(F)F)cn3)c(C#N)c3cc(F)c(C)cc32)cn1` [compound 865, 6-[3-cyano-5-fluoro-6-methyl-1-(5-methylpyrazin-2-yl)-1H-indol-2-yl]-N-[(2S)-1,1,1-trifluoropropan-2-yl]pyridine-3-sulfonamide] it was less than 500 nM; in that of `CC(C)(C)N(C(F)F)S(=O)(=O)c1ccc(-c2c(C#N)c3cc(F)c(OC(F)F)cc3n2C2CCC2)nc1` [compound 721, N-tert-butyl-6-[3-cyano-1-cyclobutyl-6-(difluoromethoxy)-5-fluoro-1H-indol-2-yl]-N-(difluoromethyl)pyridine-3-sulfonamide], 500 to 2000 nM; in that of `COC(=O)c1c(-c2ncc(S(=O)(=O)N[C@@H](C)C(F)(F)F)cn2)n(C2CCC2)c2cc(C)c(F)cc12` [compound 774, methyl 1-cyclobutyl-5-fluoro-6-methyl-2-(5-{[(2S)-1,1,1-trifluoropropan-2-yl]sulfamoyl}pyrimidin-2-yl)-1H-indole-3-carboxylate], less than 500 nM.
In the case of `CC(C)NS(=O)(=O)c1ccc(-c2c(C#N)c3cc(Cl)ccc3n2C2CCC2)cn1` [compound 28, 5-(5-chloro-3-cyano-1-cyclobutyl-1H-indol-2-yl)-N-(propan-2-yl)pyridine-2-sulfonamide] it was 2000 to 5000 nM.

These data come from patent US8735414B2 (priority 2009, dated 2014).
